Values quoted from earlier work, collected in patent US12090420B2, “Systems and methods for recovering amines and their derivatives from aqueous mixtures” (INV Nylon Chemicals Americas, LLC, priority 2018, dated 2024).
Read-outs that look alike come from different tables or passages of the source.

Details: for pKa: monoamines, single pKa taken as highest pKa; for Higher pKa / Lower pKa: diamines

| SMILES | pKa | also measured |
| --- | --- | --- |
| Cc1ccncc1 [4-Methylpyridine] | 6.08 | – |
| CCc1ccccn1 [2-Ethylpyridine] | 5.89 | – |
| c1ccc2cnccc2c1 [Isoquinoline] | 5.42 | – |
| NCCCCCCN [1,6-hexanediamine] | – | Higher pKa (25° C.): 11.02; Lower pKa (25° C.): 10.24 |
| NCCCCN [1,4-butanediamine] | – | Higher pKa: 11.2; Lower pKa: 9.7 |
| CCCCCN [Pentylamine] | 10.63 | – |
| Cc1cccnc1 [3-Methylpyridine] | 5.52 | – |
| c1ccc2c(c1)cnc1ccccc12 [Benzo[c]quinoline] | 5.58 | – |
| NCCCCCN [1,5-pentanediamine] | – | Higher pKa (25° C.): 10.93; Lower pKa (25° C.): 10.05 |

Continued, in another order:

| pKa | SMILES | also measured |
| --- | --- | --- |
| 10.63 | CCCCCCCCCCCCCCCCN [Hexadecylamine] | – |
| 10.65 | CCCCCCCCN [Octylamine] | – |
| 10.67 | CCCCCCCN [Heptylamine] | – |
| 10.43 | CC(C)CN [iso-Butylamine] | – |
| 10.64 | CCCCCCCCCN [Nonylamine] | – |
| 10.56 | CCCCCCN [Hexylamine] | highest pKa value: 10.5 |
